The test system of data set [1] is bleomycin-induced pulmonary fibrosis. In words: Bleomycin-induced pulmonary fibrosis model, lung histology (H&E). It is filed as in vivo, mice. Here is the method: (§1) The activities of compounds COMPOUND 2 and COMPOUND 33 in preventing and/or treating pulmonary fibrosis were examined using a bleomycin-induced pulmonary fibrosis model, a model that involves deactivated bleomycin hydrolase, elevated oxidative stress, and increased inflammatory cytokines. In the prevention model, mice were administered bleomycin intratracheally an hour in prior to the first oral administration of 30 mg/kg testing compounds. The treatment continued for 21 consecutive days, and mice were sacrificed to examine histological changes of lung tissues were analyzed by H&E staining to evaluate the degree of lung fibrosis. Additionally, the HDAC6 inhibitors, COMPOUND 2 and COMPOUND 33, were tested for their effect in aiding animal recovery from lung injury and pulmonary fibrosis post injury.

In the next data set the target is T1, HDAC6 (Homo sapiens, UniProt Q9UBN7).
T1 construct: GST (N); host or cells: baculovirus expression system, Sf9 insect cells
T1 sequence (Q9UBN7 1-1215): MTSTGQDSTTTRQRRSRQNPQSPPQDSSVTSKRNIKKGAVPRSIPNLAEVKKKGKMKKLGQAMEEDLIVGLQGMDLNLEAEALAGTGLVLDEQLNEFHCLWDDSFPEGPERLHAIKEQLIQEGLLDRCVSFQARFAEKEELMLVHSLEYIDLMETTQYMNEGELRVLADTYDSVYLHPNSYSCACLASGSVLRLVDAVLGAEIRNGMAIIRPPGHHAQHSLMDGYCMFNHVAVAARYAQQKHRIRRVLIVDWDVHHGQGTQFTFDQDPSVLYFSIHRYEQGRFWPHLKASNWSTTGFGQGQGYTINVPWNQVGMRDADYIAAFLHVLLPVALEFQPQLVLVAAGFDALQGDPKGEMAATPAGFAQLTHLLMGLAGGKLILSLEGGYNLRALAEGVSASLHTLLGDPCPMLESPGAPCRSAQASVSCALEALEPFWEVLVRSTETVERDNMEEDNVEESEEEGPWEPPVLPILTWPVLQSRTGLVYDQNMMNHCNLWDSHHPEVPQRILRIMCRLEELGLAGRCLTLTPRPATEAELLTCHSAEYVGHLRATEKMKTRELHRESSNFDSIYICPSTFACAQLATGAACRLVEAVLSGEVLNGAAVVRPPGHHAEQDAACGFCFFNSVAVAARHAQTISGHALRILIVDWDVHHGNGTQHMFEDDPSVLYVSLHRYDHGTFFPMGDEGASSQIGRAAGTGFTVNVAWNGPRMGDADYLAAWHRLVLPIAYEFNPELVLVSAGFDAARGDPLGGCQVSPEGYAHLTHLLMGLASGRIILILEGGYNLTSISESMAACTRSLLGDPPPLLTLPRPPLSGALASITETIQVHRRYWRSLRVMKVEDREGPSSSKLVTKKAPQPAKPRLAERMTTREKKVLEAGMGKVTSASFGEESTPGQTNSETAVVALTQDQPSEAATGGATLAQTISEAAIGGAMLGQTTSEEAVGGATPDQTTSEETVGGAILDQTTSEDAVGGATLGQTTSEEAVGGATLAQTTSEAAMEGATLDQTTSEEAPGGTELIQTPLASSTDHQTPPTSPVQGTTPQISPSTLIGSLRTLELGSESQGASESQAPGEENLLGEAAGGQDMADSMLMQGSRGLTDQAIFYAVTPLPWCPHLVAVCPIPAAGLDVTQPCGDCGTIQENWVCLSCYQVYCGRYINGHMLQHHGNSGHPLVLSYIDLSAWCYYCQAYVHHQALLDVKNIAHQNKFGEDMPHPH
In words: HDAC6 activity, acetylated-AMC-labeled peptide substrate. It is filed as biochemical. Here is the method:
(§2) The activities of HDAC 1 and 6 were measured by using an acetylated-AMC-labeled peptide substrate, a fluorogenic peptide from p53 residues 379-382 (RHIKKAc). The proteins involved in the assay are as the followings (1) Human HIDAC1 (Genflank Accession No. NM_004964): Full length with C-terminal GST tag, MW=79.9 kDa, expressed by baculovirus expression system in SP9 cells; and (2) Human HIDAC6 (Genflank Accession No. BC069243): Full length with N-terminal GST tag, MW=159 kDa, expressed by baculovirus expression system in Sf9 cells.

Data set [2] concerns BioMAP Fibrosis panel (REMyoF, SAEMyoF, MyoF systems). In words: BioMAP Fibrosis panel cytokine/biomarker profiles. The format is cell-based. Here is the method: The HDAC6 inhibitor compounds were tested in a commercially available platform, BioMAP, for the cytokine profiles in related to tissue injuries. The BioMAP Fibrosis panel included 3 systems stimulated to model TGFβ and TNFα driven myofibroblast differentiation during chronic inflammation and wound healing in different tissue settings. Fibrotic disease of the kidney associated with end-stage renal failure was captured in the REMyoF system consisting of a co-culture of renal proximal tubule epithelial cells and adult fibroblasts. Interstitial lung diseases, including pulmonary fibrotic diseases such as idiopathic pulmonary fibrosis (IPF), was modeled by co-culturing small airway epithelial cells and adult fibroblasts in the SAEMyoF system. Both co-culture systems modeled the paracrine interaction between myofibroblasts and the proximally located epithelial cells, while the impact on fibroblasts alone was interrogated using the monoculture MyoF system. A signature BioMAP profile that is reflective of the changes in protein biomarker readouts within an individual system was generated for each testing compounds. Biomarker readouts selected for therapeutic and biological relevance were predictive for disease outcomes or specific drug effects, and was validated using agents with known clinical efficacy. Each readout was measured quantitatively by immune-based methods that detect protein (e.g., ELISA).

The next data set relates to IL-6. The data set is described as follows: IL-6 in bronchoalveolar lavage fluid, bleomycin model. The format is in vivo, mice. As to conditions: prevention model, 30 mg/kg oral, 21 days; FIG. 6. The protocol: as §1, with “fibrosis.” for “fibrosis. Additionally, the HDAC6 inhibitors, COMPOUND 2 and COMPOUND 33, were tested for their effect in aiding animal recovery from lung injury and pulmonary fibrosis post injury.”

The next data set has as its target T2, HDAC1 (Homo sapiens, UniProt Q13547).
T2 construct: GST (C); host or cells: baculovirus expression system, Sf9 insect cells (SP9 [sic])
The data set is described as follows: HDAC1 activity, acetylated-AMC-labeled peptide substrate. It is filed as biochemical. Here is the method:
as §2

Data set [3] is described as follows: Oral pharmacokinetics (Table II). Set-up: AUC: concentration or dose not given beside the values. The conditions noted are these: in vivo.
Data set [4] relates to acetylated α-tubulin (Ac-α-tub). The data set is described as follows: Western blot of acetylated α-tubulin in primary DRG cells. The conditions noted are these: 48 hours of treatment, FIG. 2. It is filed as cell-based, C57BL/6J mice. The protocol: (§3) To investigate the effect of HDAC6 inhibitors in neuron protection and neuron regeneration, the recovery of dorsal root ganglion (DRG) cells post-paclitaxel injury was tested. Dorsal root ganglion was extracted from 7 week-old female C57BL/6J mice and incubated with HDAC6 inhibitors (compounds COMPOUND 33, COMPOUND 34, or COMPOUND 2) at the concentrations of 0.1 μM and 1 μM, or 100 ng/ml of BDNF, a neuronal growth factor (positive control), for 24 hours prior to a 24-hour incubation of 0.1 μM paclitaxel.
In general terms: In western blotting, separated proteins are transferred to a membrane and probed.

Data set [5] has as its system dorsal root ganglion (DRG) cells. In words: DRG neurite outgrowth after paclitaxel-induced damage. The format is cell-based, C57BL/6J mice. The conditions noted are these: 0.1 μM and 1 μM, 24 hours prior to 24-hour 0.1 μM paclitaxel; FIG. 1. The protocol: as §3
The neurite was stained by pIII-tubulin.

This note sets out measurements from patent US20230212129A1, “QUINAZOLINE DERIVATIVES USEFUL AS SELECTIVE HDAC6 INHIBITORS” (AnnJi Pharmaceutical Co., Ltd., priority 2020, published 2023).

Each structure is given as a SMILES string.

As a reminder, the IC50 is the point on the concentration scale where inhibition reaches its midpoint. As a reminder, the Cmax is the peak of the concentration-time curve. By AUC is commonly meant the area under the concentration-time curve, a measure of exposure.

T2 sequence (Q13547 whole entry): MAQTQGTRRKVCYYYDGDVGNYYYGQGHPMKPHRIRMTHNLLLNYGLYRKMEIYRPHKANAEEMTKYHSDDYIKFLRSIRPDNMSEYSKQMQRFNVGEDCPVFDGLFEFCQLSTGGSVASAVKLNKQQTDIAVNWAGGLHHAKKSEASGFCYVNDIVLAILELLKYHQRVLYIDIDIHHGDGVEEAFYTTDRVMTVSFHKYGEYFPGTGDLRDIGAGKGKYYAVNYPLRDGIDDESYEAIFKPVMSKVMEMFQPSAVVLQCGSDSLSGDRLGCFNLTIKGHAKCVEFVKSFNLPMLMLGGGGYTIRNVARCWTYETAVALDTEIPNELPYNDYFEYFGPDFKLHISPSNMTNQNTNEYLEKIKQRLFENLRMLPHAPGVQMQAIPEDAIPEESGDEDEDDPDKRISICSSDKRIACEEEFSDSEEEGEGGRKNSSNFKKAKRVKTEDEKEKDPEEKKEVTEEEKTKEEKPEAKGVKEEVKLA

Take `CCc1nc2cc(F)c(/C=C/C(=O)NO)cc2c(=O)n1-c1ccccc1` [Compound 33, (E)-3-(2-ethyl-7-fluoro-4-oxo-3-phenyl-3,4-dihydroquinazolin-6-yl)-N-hydroxyacrylamide]: the “development of lung fibrosis” value in data set [1] (prevention model, 30 mg/kg oral, 21 consecutive days, FIG. 5) is recorded as “markedly decreased the development of lung fibrosis”. Further, the “recovery from lung injury and pulmonary fibrosis post injury” value in data set [1] (treatment post injury) was “protective effect in pulmonary inflammatory response and pulmonary fibrosis”. The “HDAC6 selectivity (A)/(B)” value at HDAC6 (HDAC1 IC50 / HDAC6 IC50) was 134. In addition, at HDAC6 (read-out: HDAC6 IC50 (B)), the IC50 worked out at 0.033 µM. Further, in data set [2] (BioMAP readouts), the fibrosis-related matrix activities entry was “decreased Collagen III, MMP-9; increased Collagen IV; modulated MMP-1, Collagen I”; the inflammation-related activities result was “decreased M-CSF, sIL-6, MCP-1; modulated IP-10, I-TAC”; the myofibroblast activation-related activities result is “decreased αSMA, E-Cadherin, N-Cadherin”; the “tissue remodeling/wound healing activities” value is given as “decreased EGFR, tPA, uPA; modulated sVEGF”. Further, the “activities on cytokines contributing to fibrosis” value in data set [2] (compared with nintedanib) is “marked activities in decreasing TNF-α, IL-1, IL-6, MMP-9, VEGF, and collagen I”. Moreover, the “IL-6 level in the BALF” value in the data set on IL-6 is “suppressed IL-6 level in the BALF”. On HDAC1, this compound gave an IC50 of 4.44 µM. The compound also displayed a Cmax in data set [3] of 2720 ng/mL. Further, the AUC in data set [3] (unit inferred) was 11000 ng·h/mL. Also, in data set [4], the tubulin hyperacetylation result was “tubulin hyperacetylation”. For the same compound, the neurite outgrowth result in data set [5] is recorded as “significantly rescued the neurite outgrowth”.
